Reference: patent US10757941B2, “Microbiocidal oxadiazole derivatives” (SYNGENTA PARTICIPATIONS AG, priority 2016, dated 2020)

Columns and labels:
[1] = test system: Puccinia recondita f. Sp. Tritici; test: Fungicidal activity against Puccinia recondita f. sp. tritici / wheat / leaf disc preventative (brown rust); type: in vivo; conditions: foliar, 200 ppm in the applied formulation, wheat leaf segments cv. Kanzler, preventative (inoculated 1 day after application), assessed 7 to 9 days after application, compared to untreated, read-out: disease control
Summary of the method: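 Wheat cv. Kanzler leaf segments on agar sprayed with formulated compound diluted in water; spore inoculation 1 day after application. Incubated at 19° C., 75% rh, 12 h light/12 h dark; percent disease control versus untreated scored 7 to 9 days after application.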

[2] = test system: Puccinia recondita f. Sp. Tritici; test: Fungicidal activity against Puccinia recondita f. sp. tritici / wheat / leaf disc curative (brown rust); type: in vivo; conditions: foliar, 200 ppm in the applied formulation, wheat leaf segments cv. Kanzler, curative (applied 1 day after inoculation), assessed 6 to 8 days after application, compared to untreated, read-out: disease control
Protocol: Leaf disks or leaf segments of various plant species are cut from plants grown in a greenhouse. The cut leaf disks or segments are placed in multiwell plates (24-well format) onto water agar. The leaf disks are sprayed with a test solution before (preventative) or after (curative) inoculation. Compounds to be tested are prepared as DMSO solutions (max. 10 mg/ml) which are diluted to the appropriate concentration with 0.025% Tween20 just before spraying. The inoculated leaf disks or segments are incubated under defined conditions (temperature, relative humidity, light, etc.) according to the respective test system. A single evaluation of disease level is carried out 3 to 14 days after inoculation, depending on the pathosystem. Percent disease control relative to the untreated check leaf disks or segments is then calculated. Example 2: Fungicidal Activity Against Puccinia recondita f. Sp. Tritici/Wheat/Leaf Disc Curative (Brown Rust) Wheat leaf segments cv. Kanzler are placed on agar in multiwell plates (24-well format). The leaf segments are then inoculated with a spore suspension of the fungus. Plates were stored in darkness at 19° C. and 75% relative humidity. The formulated test compound diluted in water was applied 1 day after inoculation. The leaf segments were incubated at 19° C. and 75% relative humidity under a light regime of 12 hours light/12 hours darkness in a climate cabinet and the activity of a compound was assessed as percent disease control compared to untreated when an appropriate level of disease damage appears in untreated check leaf segments (6 to 8 days after application). The following compounds at 200 ppm in the applied formulation give at least 80% disease control in this test when compared to untreated control leaf disks under the same conditions, which show extensive disease development.

Phakopsora pachyrhizi = test: Fungicidal activity against Phakopsora pachyrhizi / soybean / leaf disc preventative (Asian soybean rust); type: in vivo; conditions: foliar, 200 ppm in the applied formulation, soybean leaf disks, preventative (inoculated one day after application), assessed 12 to 14 days after application, compared to untreated, read-out: disease control
Summary of the method: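 Preventative test: soybean leaf discs on water agar sprayed with compound diluted in water, inoculated with spore suspension on lower surface one day later. Incubated 24-36 h dark at 20° C., 75% rh, then 12 h light/day; percent disease control versus untreated assessed 12 to 14 days after application.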

[3] = test system: Glomerella lagenarium (Colletotrichum lagenarium); test: Fungicidal activity against Glomerella lagenarium (Colletotrichum lagenarium) liquid culture / cucumber / preventative (anthracnose); type: cell-based; conditions: Colletotrichum orbiculare; 20 ppm in the applied formulation; liquid culture in PDB, 24° C.; inhibition of growth measured photometrically 3 to 4 days after application; compared to untreated; read-out: disease control
Summary of the method: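 Conidia of C. lagenarium from cryogenic storage mixed into potato dextrose broth and added to test compound (DMSO solution) in microtiter plates; incubated at 24° C. Growth inhibition read photometrically 3 to 4 days after application, as percent activity versus untreated check.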

Uromyces viciae-fabael = test: Fungicidal activity against Uromyces viciae-fabae / field bean / leaf disc preventative (faba-bean rust); type: in vivo; conditions: foliar, 288 h, 100 ppm in the applied formulation, field bean leaf discs, preventative (inoculated two hours after application), assessed 12 days after application, compared to untreated, read-out: disease control
Summary of the method: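 Field bean leaf discs on water agar treated with compound in acetone plus spreader, then inoculated 2 h later by spraying U. viciae-fabae spores on the lower surface. Incubation at 22° C, 18 h day, 70% RH; percent disease control versus untreated scored 12 days after application.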

Cc1ccc(CNC(=O)c2ccc(-c3noc(C(F)(F)F)n3)c(F)c2)o1 [Compound 1.28, 3-fluoro-N-[(5-methyl-2-furyl)methyl]-4-[5-(trifluoromethyl)-1,2,4-oxadiazol-3-yl]benzamide]
≥ 80%: pest or weed control at 200 ppm [1] | pest or weed control at 200 ppm [2] | pest or weed control at 200 ppm (Phakopsora pachyrhizi) | inhibition of growth at 20 ppm [3] | pest or weed control at 100 ppm (Uromyces viciae-fabael)

O=C(NCc1ccco1)c1ccc(-c2noc(C(F)(F)F)n2)c(F)c1 [Compound 1.31, 3-fluoro-N-(2-furylmethyl)-4-[5-(trifluoromethyl)-1,2,4-oxadiazol-3-yl]benzamide]
≥ 80%: pest or weed control at 200 ppm [1] | pest or weed control at 200 ppm [2] | pest or weed control at 200 ppm (Phakopsora pachyrhizi) | inhibition of growth at 20 ppm [3] | pest or weed control at 100 ppm (Uromyces viciae-fabael)

O=C(NCCc1cccs1)c1ccc(-c2noc(C(F)(F)F)n2)c(F)c1 [Compound 1.35, 3-fluoro-N-[2-(2-thienyl)ethyl]-4-[5-(trifluoromethyl)-1,2,4-oxadiazol-3-yl]benzamide]
≥ 80%: pest or weed control at 200 ppm [1] | pest or weed control at 200 ppm [2] | pest or weed control at 200 ppm (Phakopsora pachyrhizi) | inhibition of growth at 20 ppm [3] | pest or weed control at 100 ppm (Uromyces viciae-fabael)

COC(CN(C)C(=O)c1ccc(-c2noc(C(F)(F)F)n2)c(F)c1)OC [Compound 1.36, N-(2,2-dimethoxyethyl)-3-fluoro-N-methyl-4-[5-(trifluoromethyl)-1,2,4-oxadiazol-3-yl]benzamide]
≥ 80%: pest or weed control at 200 ppm [1] | pest or weed control at 200 ppm [2] | pest or weed control at 200 ppm (Phakopsora pachyrhizi) | inhibition of growth at 20 ppm [3] | pest or weed control at 100 ppm (Uromyces viciae-fabael)

O=C(NC1CCC1)c1ccc(-c2noc(C(F)(F)F)n2)c(F)c1 [Compound 1.39, N-cyclobutyl-3-fluoro-4-[5-(trifluoromethyl)-1,2,4-oxadiazol-3-yl]benzamide]
≥ 80%: pest or weed control at 200 ppm [1] | pest or weed control at 200 ppm [2] | pest or weed control at 200 ppm (Phakopsora pachyrhizi) | inhibition of growth at 20 ppm [3] | pest or weed control at 100 ppm (Uromyces viciae-fabael)

CCOCC1(NC(=O)c2ccc(-c3noc(C(F)(F)F)n3)c(F)c2)CC1 [Compound 1.40, N-[1-(ethoxy-methyl)cyclopropyl]-3-fluoro-4-[5-(trifluoromethyl)-1,2,4-oxadiazol-3-yl]benzamide]
≥ 80%: pest or weed control at 200 ppm [1] | pest or weed control at 200 ppm [2] | pest or weed control at 200 ppm (Phakopsora pachyrhizi) | inhibition of growth at 20 ppm [3] | pest or weed control at 100 ppm (Uromyces viciae-fabael)
